Experimental findings from publication PMC3165048 (Chemistry & biology, 2010) are described below.

In this experiment the test system is M. tuberculosis knock-in strains overexpressing MtMetAP1a or MtMetAP1c, wild-type and control strains. The class given is cell-based, M. tuberculosis CDC1551.

Consider `O=C1C(Cl)=C(Cl)C(=O)c2ccccc21` [Compound 4, 2,3-dichloro-1,4-naphthoquinone], for which the “Growth of MtMetAP1a knock-in strain in the presence of inhibitor” value is “gained resistance”; the “Growth of MtMetAP1c knock-in strain in the presence of inhibitor” value was “gained resistance”; the “Growth of wild-type and control M. tuberculosis strains in the presence of inhibitor” value is “inhibited”.
